Patent US7615380B2, “Methods for modulating an immune response by modulating KRC activity” (President and Fellows of Harvard College, priority 2001, dated 2009)

What was measured:
[1] = test system: MAPK (ERK, p38, JNK); test: MAPK activity in Jurkat cells (PathDetect reporter, immunoprecipitation-kinase assay); type: cell-based, human
Method: FIG. 20(A) Jurkat cells were transiently transfected with AP-1 Luciferase reporter along with KRC and RasN17 DN vectors. 24 hours later cells were pretreated with Rottlerin (10 μM) and stimulated for 6 hours with PMA plus ionomycin. Luciferase activity was measured as above. FIG. 20(B) Jurkat cells were transfected with a GAL4 Luciferase reporter along with a GAL4 DNA binding domain, GAL4-ATF2, or GAL4-ELK1 with or without KRC. 24 hours later, cells were stimulated with PMA plus ionomycin and analyzed for Luciferase activity as above. FIG. 20(C) Jurkat cells were transiently transfected with FLAG-JNK2, and either Vector, KRC, or MKK7. 48 hours later, cells were stimulated with PMA plus ionomycin for 6 hours and JNK activity was determined by immunoprecipitation/kinase assay. […]
KRC may enhance AP-1 function indirectly through the modulation of MAPK activity, kinases downstream of Ras that are known to potently stimulate AP-1 function (Binetruy, B., et al. (1991) Nature 351:122-127; Deng, T., and M. Karin (1994) Nature 371:171-175; Murphy, L., et al. (2002) Nat. Cell Biol. 4: 556-564). […] Co-expression of KRC with HA-ERK1, myc-ERK2, Flag-P38 and Flag-JNK2 was performed and the activity of each kinase was measured using an immunoprecipitation-kinase assay with specific substrates, GST-Elk1, GST-ATF2 and GST-Jun for each MAPK. […]

[2] = test system: AP-1; test: AP-1 luciferase/GFP reporter in 293T cells; type: cell-based, human
Method: FIG. 21(A) 293T cells were transfected with c-Jun and myc-KRCtr. 48 hours later, lysates were immunoprecipitated with anti-Myc antibody. Immunoprecipitates were probed by western blotting with anti-c-Jun antibody. FIG. 21(B) (left panel) 293T cells were cotransfected with c-Jun and full length His-KRC. 48 hours later, lysates were immunoprecipitated with anti-His antibody (DE8 Omniprobe) and precipitates were probed by western blotting with anti-c-Jun antibody. (right panel) In vitro translated and S35-labelled c-Jun and His-KRCtr were mixed and immunoprecipitated with anti-His antibody. Recovered c-Jun protein was visualized by autoradiography. FIG. 21(C) Jurkat or EL4 T cells were stimulated with PMA plus ionomycin for 45 minutes. Lysates were immunoprecipitated with anti-c-Jun antibody, and immunoprecipitates were probed with specific anti-KRC rabbit antisera. […] 24 hours later, Luciferase activity was determined as above. […] 24 hours later, luciferase activity was determined as above. […]
To examine the functional consequences of AP-1 degradation by KRC, cotransfection experiments in 293T cells with sense or antisense KRC together with a luciferase-tagged AP-1 reporter construct were performed. […] Conversely, cotransfection of antisense KRC increased AP-1 transactivation as evidenced by an increased number of GFP+ cells as well as an increase in the intensity of fluorescence per cell in. […]

KRC: full-length KRC zinc finger protein (SEQ ID NO:2) overexpressed from an expression vector
MAPK activity, immunoprecipitation-kinase assay ([1]; ERK1, ERK2, P38, JNK2): no detectable effect on any of the MAPKs
MAPK / p38 activity, PathDetect reporter (ELK-1, ATF2) ([1]; Jurkat cells): unable to modulate either MAPK or p38 activity
c-Jun and c-Jun plus c-Fos AP-1 activity enhancement ([2]; AP-1 luciferase reporter): approximately 5 fold
AP-1 activity (luciferase-tagged AP-1 reporter) ([2]; sense or antisense KRC cotransfection): decreased stimulation of AP-1 activity
